In test [1] the test system is IL-1β cytokine output from THP-1s. As to the kind of experiment: THP-1 AlphaLISA IL-1β cytokine inhibition assay. It counts as cell-based. As to conditions: for IC50: LPS then nigericin; for IL-1β lowering, result in words: THP-1 IL-1β assay. As for the experimental part:
Measuring Inhibitory Effects on IL-1β Cytokine Output from THP-1s
The cytokine inhibition profiles of compounds of formula (I) were determined in a differentiated THP-1 cell assay. All assays were performed in RPMI-1640 growth medium (Gibco), supplemented with 10% fetal bovine serum (FBS; Gibco), 1% penicillin-streptomycin and 1% sodium pyruvate unless specified otherwise. The IL-1β cytokine inhibition assay was run in a background of differentiated THP-1 cells as described below. All reagents described were from Sigma-Aldrich unless specified otherwise. Compounds were prepared as 10 mM DMSO stocks.
THP-1 cells were expanded as a suspension up to 80% confluence in appropriate growth medium. Cells were harvested, suspended, and treated with an appropriate concentration of phorbol 12-myristate 13-acetate (PMA) over a 72 hr period (37° C./5% CO2).
Following 72 hrs of THP-1 cell incubation, cellular medium was removed and replaced with fresh growth media containing 1% of FBS. Working concentrations of compounds were prepared separately in 10% FBS treated growth medium and pre-incubated with the cells for 30 minutes (37° C./5% CO2). Following the 30 minute compound pre-incubation, THP-1s were treated with an appropriate concentration of LPS and the cells were subsequently incubated for a 24 hr period (37° C./5% CO2). An appropriate final concentration of Nigericin was then dispensed into the THP-1 plates and incubated for 1 hour (37° C./5% CO2) before THP-1 supernatants were harvested and collected in separate polypropylene 96-well holding plates.
Reagents from an IL-1β and IL-6 commercial kit (Perkin Elmer) were prepared and run according to the manufacturer's instructions. Subsequently, fluorescence signal detection in a microplate reader was measured (EnVision® Multilabel Reader, Perkin Elmer).
Percentage inhibition was calculated per cytokine by normalising the sample data to the high and low controls used within each plate (+/− LPS respectively).
In general terms: Alpha assays give light when donor and acceptor beads are brought close together.

In test [2] the test system is NRF2 (nuclear factor erythroid 2-related factor 2). Put plainly: NRF2 +/-GSH activation assay (DiscoverX PathHunter NRF2 translocation kit, U2OS cells). As to conditions: for NRF2 activation +GSH Emax / NRF2 activation −GSH Emax: normalised to DMF high control. The class given is cell-based. As for the experimental part: Measuring Compound Activation Effects on the Anti-Inflammatory Transcription Factor NRF2 in DiscoverX PathHunter NRF2 Translocation Kit
Potency and efficacy of compounds of formula (I) against the target of interest to activate NRF2 (nuclear factor erythroid 2-related factor 2) were determined using the PathHunter NRF2 translocation kit (DiscoverX). The NRF2 translocation assay was run using an engineered recombinant cell line, utilising enzyme fragment complementation to determine activation of the Keap1-NRF2 protein complex and subsequent translocation of NRF2 into the nucleus. Enzyme activity was quantified using a chemiluminescent substrate consumed following the formation of a functional enzyme upon PK-tagged NRF2 translocation into the nucleus.
The assay was run under both +/−GSH (glutathione) conditions to determine the sensitivity of the compounds' NRF2-activating abilities to attenuation by GSH.
Additionally, a defined concentration of DMF was used as the ‘High’ control to normalise test compound activation responses to.
U2OS PathHunter eXpress cells were thawed from frozen prior to plating. Following plating, U2OS cells were incubated for 24 hrs (37° C./5% CO2) in commercial kit provided cell medium.
Following 24 hrs of U2OS incubation, cells were directly treated with an appropriate final concentration of compound, for −GSH conditions or, for +GSH conditions, an intermediate plate containing 6× working concentrations of compound stocks was prepared in a 6 mM working concentration of GSH solution (solubilised in sterile PBS). Following a 30 minute compound-GSH pre-incubation (37° C./5% CO2) for +GSH treatment, plated U2OS cells were incubated with an appropriate final concentration of compound and GSH.
Following compound (+/−GSH) treatment, the U2OS plates were incubated for a further 6 hours (37° C./5% CO2) before detection reagent from the PathHunter NRF2 commercial kit was prepared and added to test plates according to the manufacturer's instructions. Subsequently, the luminescence signal detection was measured in a microplate reader (PHERAstar®, BMG Labtech).
Percentage activation was calculated by normalising the sample data to the high and low controls used within each plate (+/−DMF).

Where [3] appears, read: +GSH, 30 minute compound-GSH pre-incubation, read-out: NRF2 activation +GSH EC50.
The mark [4] stands for this setting: −GSH, U2OS PathHunter cells, 6 hours compound treatment, read-out: NRF2 activation −GSH EC50.
[5] abbreviates: Homo sapiens, THP-1, differentiated THP-1 cells.

Read-outs that look alike come from different tables or passages of the source. Some results are limits rather than exact numbers.

Consider `C=C(Cc1nc(-c2ccc(OC(C)CC)cc2)no1)C(=O)O` (stereo in doubt) [Example 145, (S)-2-((3-(4-(sec-butoxy)phenyl)-1,2,4-oxadiazol-5-yl)methyl)acrylic acid], for which, in test [1] (differentiated THP-1 cells), 35.6 µM corresponded to half-maximal inhibition (IC50). The values for the concentration giving a half-maximal response (EC50) in test [2] (setting [3]) and in test [2] (setting [4]) were 31.4 µM and 28.4 µM, respectively. In addition, the “NRF2 activation +GSH Emax” value in test [2] (+GSH) is on record as 135%. Further, in test [2] (−GSH), the “NRF2 activation −GSH Emax” value was 170%.
Compound `C=C(Cc1nc(-c2ccc(OCCCC)c(C(F)(F)F)c2)no1)C(=O)O` [Example 161, 2-((3-(4-butoxy-3-(trifluoromethyl)phenyl)-1,2,4-oxadiazol-5-yl)methyl)acrylic acid] yielded a half-inhibitory concentration (IC50) in test [1] (setting [5]) of over 10 µM. Also, the values for the EC50 in test [2] (setting [3]) and in test [2] (setting [4]) were 7.2 µM and 25.1 µM, respectively. The “NRF2 activation +GSH Emax” value in test [2] (+GSH) was 114%. In addition, the “NRF2 activation −GSH Emax” value in test [2] (−GSH) is recorded as 258%.
Regarding `C=C(Cc1ncn(CCCCCCCC)n1)C(=O)O` [Example 13, 2-((1-octyl-1H-1,2,4-triazol-3-yl)methyl)acrylic acid], the half-maximal inhibitory concentration (IC50) in test [1] (setting [5]) was over 100 µM. For the same compound, the “IL-1β lowering, result in words” value in test [1] is recorded as “not effective”. Also, the 50% effective concentration (EC50) in test [2] (setting [3]) stood at 48.6 µM; in test [2] (setting [4]), 43.1 µM. In addition, the “NRF2 activation +GSH Emax” value in test [2] (+GSH) was 51%. Besides, the “NRF2 activation −GSH Emax” value in test [2] (−GSH) is 54%.
With `C=C(Cc1nc(-c2ccc(OCCCC)c(Cl)c2)no1)C(=O)O` [Example 160, 2-((3-(4-butoxy-3-chlorophenyl)-1,2,4-oxadiazol-5-yl)methyl)acrylic acid], in test [1] (setting [5]), the IC50 is over 10 µM. Further, the EC50 in test [2] (setting [3]) worked out at 4.1 µM; in test [2] (setting [4]), 5 µM. Also, in test [2] (+GSH), the “NRF2 activation +GSH Emax” value is on record as 238%. In test [2] (−GSH), the “NRF2 activation −GSH Emax” value came out at 216%.
In turn, `C=C(Cc1nc(C(F)(F)c2ccc(F)cc2)no1)C(=O)O` [Example 125, 2-((3-(difluoro(4-fluorophenyl)methyl)-1,2,4-oxadiazol-5-yl)methyl)acrylic acid] displayed an IC50 in test [1] (setting [5]) of over 100 µM. The EC50 in test [2] (setting [3]) and in test [2] (setting [4]) was over 100 µM in each case. Further, in test [2] (+GSH), the “NRF2 activation +GSH Emax” value was found to be 26%. The “NRF2 activation −GSH Emax” value in test [2] (−GSH) was 37%.
Compound `C=C(Cc1nc(C23CC4CC(CC(C4)C2)C3)no1)C(=O)O` [Example 66, 2-((3-(adamantan-1-yl)-1,2,4-oxadiazol-5-yl)methyl)acrylic acid] returned an IC50 in test [1] (setting [5]) of over 100 µM. Also, the “IL-1β lowering, result in words” value in test [1] is given as “not effective”. The EC50 in test [2] (setting [3]) and in test [2] (setting [4]) was over 100 µM in each case. Moreover, the “NRF2 activation +GSH Emax” value in test [2] (+GSH) came to 14%. Besides, the “NRF2 activation −GSH Emax” value in test [2] (−GSH) came to 23%.
As to `C=C(Cc1nc(Cc2cccc(CCCC)c2)no1)C(=O)O` [Example 29, 2-((3-(3-butylbenzyl)-1,2,4-oxadiazol-5-yl)methyl)acrylic acid], the IC50 in test [1] (setting [5]) was determined as 22.8 µM. Further, the values for the EC50 in test [2] (setting [3]) and in test [2] (setting [4]) were 11.2 µM and 7.6 µM, respectively. For the same compound, the “NRF2 activation +GSH Emax” value in test [2] (+GSH) came to 183%. Moreover, the “NRF2 activation −GSH Emax” value in test [2] (−GSH) is listed as 179%.
`C=C(Cc1nc(C2(c3ccccc3Cl)CC2)no1)C(=O)O` [Example 24, 2-((3-(1-(2-chlorophenyl)cyclopropyl)-1,2,4-oxadiazol-5-yl)methyl)acrylic acid] displayed an IC50 in test [1] (setting [5]) of over 100 µM. For the same compound, the “IL-1β lowering, result in words” value in test [1] is “not effective”. The EC50 in test [2] (setting [3]) is over 100 µM; in test [2] (setting [4]), 42.4 µM. In test [2] (+GSH), the “NRF2 activation +GSH Emax” value was 17%. In addition, the “NRF2 activation −GSH Emax” value in test [2] (−GSH) is recorded as 57%.
In test [1] (setting [5]), `C=C(Cc1nc(-c2ccc(OCCC)c(Cl)c2)no1)C(=O)O` [Example 130, 2-((3-(3-chloro-4-propoxyphenyl)-1,2,4-oxadiazol-5-yl)methyl)acrylic acid] had a concentration for half-maximal inhibition (IC50) of over 100 µM. The 50% effective concentration (EC50) in test [2] (setting [3]) was determined as 37.4 µM; in test [2] (setting [4]), 36.5 µM. The “NRF2 activation +GSH Emax” value in test [2] (+GSH) stood at 129%. In addition, the “NRF2 activation −GSH Emax” value in test [2] (−GSH) worked out at 177%.
The like results for `C=C(Cc1nc(Cc2ccc(C)c(Cl)c2)no1)C(=O)O` [Example 165, 2-((3-(3-chloro-4-methylbenzyl)-1,2,4-oxadiazol-5-yl)methyl)acrylic acid] were, in that order, over 100 µM, over 100 µM, over 100 µM, 16% and 25%.
Turning to `C=C(Cc1nc(CCCc2ccc(Cl)cc2)no1)C(=O)O` [Example 33, 2-((3-(3-(4-chlorophenyl)propyl)-1,2,4-oxadiazol-5-yl)methyl)acrylic acid], in test [1] (setting [5]), the midpoint of inhibition, the IC50, lay at 83.5 µM. Further, the EC50 in test [2] (setting [3]) came to 23.3 µM; in test [2] (setting [4]), 18.3 µM. For the same compound, in test [2] (+GSH), the “NRF2 activation +GSH Emax” value worked out at 160%. In addition, in test [2] (−GSH), the “NRF2 activation −GSH Emax” value stood at 150%.
The compound `C=C(Cc1nc(C2CCCCC2)no1)C(=O)O` [Example 64, 2-((3-cyclohexyl-1,2,4-oxadiazol-5-yl)methyl)acrylic acid] registered a half-inhibitory concentration (IC50) in test [1] (setting [5]) of over 100 µM. Further, in test [1], the “IL-1β lowering, result in words” value was “not effective”. Moreover, the EC50 in test [2] (setting [3]) and in test [2] (setting [4]) was over 100 µM in each case. In test [2] (+GSH), the “NRF2 activation +GSH Emax” value was 17%. In test [2] (−GSH), the “NRF2 activation −GSH Emax” value is on record as 86%.
Turning to `C=C(Cc1noc(Cc2ccc(CCCC)cc2)n1)C(=O)O` [Example 95, 2-((5-(4-butylbenzyl)-1,2,4-oxadiazol-3-yl)methyl)acrylic acid], in test [1] (setting [5]), the half-maximal inhibitory concentration (IC50) is over 31.6 µM. Also, the results for the EC50 in test [2] (setting [3]) and in test [2] (setting [4]) were 3.9 µM and 2.8 µM, respectively. In test [2] (+GSH), the “NRF2 activation +GSH Emax” value stood at 183%. Besides, the “NRF2 activation −GSH Emax” value in test [2] (−GSH) is recorded as 217%.
As for `C=C(Cc1nc(Cc2cc(F)c(Cl)c(F)c2)no1)C(=O)O` [Example 164, 2-((3-(4-chloro-3,5-difluorobenzyl)-1,2,4-oxadiazol-5-yl)methyl)acrylic acid], the concentration for half-maximal inhibition (IC50) in test [1] (setting [5]) is over 100 µM. The results for the EC50 in test [2] (setting [3]) and in test [2] (setting [4]) were 63.4 µM and 42.7 µM, respectively. In addition, the “NRF2 activation +GSH Emax” value in test [2] (+GSH) came to 5.5%. In test [2] (−GSH), the “NRF2 activation −GSH Emax” value came to 62%.
`C=C(Cc1nc(-c2ccc(OC3CCCC3)cc2)no1)C(=O)O` [Example 143, 2-((3-(4-cyclopentyloxyphenyl)-1,2,4-oxadiazol-5-yl)methyl)acrylic acid] returned an IC50 in test [1] (setting [5]) of 22.1 µM. Further, the EC50 is 14.5 µM in test [2] (setting [3]) and 12 µM in test [2] (setting [4]). In test [2] (+GSH), the “NRF2 activation +GSH Emax” value is recorded as 195%. For the same compound, the “NRF2 activation −GSH Emax” value in test [2] (−GSH) came to 243%.
The like results for `C=C(Cc1nc(-c2ccc(OCCCOC)cc2)no1)C(=O)O` [Example 159, 2-((3-(4-(3-methoxypropoxy)phenyl)-1,2,4-oxadiazol-5-yl)methyl)acrylic acid] were, in that order, over 100 µM, 39.9 µM, 34.4 µM, 85% and 87%.

For orientation: IC50 means the concentration needed to halve the response being measured. A high value points to weaker potency. What is called EC50 is the concentration giving half of the maximal effect.

For the origin of these results see patent US12617762B2, “Carboxy derivatives with antiinflamatory properties” (Sitryx Therapeutics Limited, priority 2019, dated 2026).
